Patent publication US8633134B2, “Substituted amidine compounds for combating animal pests” (priority 2008, dated 2014)

Experiments:
Type in all cases: in vivo
[1] = test system: yellowfever mosquito larvae (Aedes aegypti); test: Larval mosquito water treatment assay; conditions: 120 h, 5 DAT (days after treatment), first tier test, in comparison with untreated controls
Protocol: The assay was conducted in 6-well polystyrene plates using one plate per treatment rate. Stock solutions were prepared at 100 and 1000 ppm. Screen rates were at 1 and 10 ppm. Distilled water was added to each well, control wells were treated with acetone. Temephos (Abate technical) was used as the standard at 0.1 ppm. Ten late thirdinstar yellowfever mosquito larvae (Aedes aegypti) in water were added to each well. One drop of liver powder solution (6 g in 100 ml distilled water) was added to each well as a food source daily. Plates were maintained at 22-25° C. and 25-50% RH (relative humidity) and observed daily for dead larvae and pupae at 1, 2, 3, and 5 days after treatment. Dead larvae and all pupae were removed daily. Mortality was defined as an insect incapable of coordinated movement when agitated.

[2] = test system: House Fly Adults (Musca domestica); test: House fly adults glass vial contact assay; conditions: 48 h after treatment, in comparison with untreated controls
Protocol: If not otherwise specified, the tests were conducted as glass vial contact assays. Glass vials (20 ml scintillation vials) were used. Treatment solutions were mixed with technical grade chemicals diluted in acetone. Treatment solutions needed for the assays included generally 1 and 10 ppm (0.01 and 0.1 μg/cm^2, respectively), but optionally also 100 and/or 1000 ppm for first tier vials. As commercial standard, alphacypermethrin, was run at 1 ppm. As solvent control, acetone was used for the assay. Treatment solution was pipetted into the bottom of each vial. Each vial was turned on its side and placed onto a commercial grade hot dog roller without applying heat. The uncapped vials were allowed to roll to allow for the acetone treatment to vent off. After drying, the vials were placed into the compartmented vial shipping boxes. The workstation was prepared by chilling the table and plastic Petri dishes with the inside wall coated with Fluon. A weigh boat of 10% sugar water saturated cotton dental pellets was also prepared. The animal pests were collected into a tube with a rechargeable insect vacuum. The tube of animal pests was placed in a laboratory refrigerator until the animal pests were incapacitated. The animal pests were emptied into chilled Petri dish. A small cotton dental pellet was soaked in water or in 10 wt % sugar water, whereas the excess solution was gently squeezed out. […]

[3] = test system: Boll Weevil (Anthonomus grandis); test: Boll weevil microtiter plate diet test; conditions: 120 h
Protocol: For evaluating control of boll weevil (Anthonomus grandis) the test unit consisted of 24-well-microtiter plates containing an insect diet and 20-30 A. grandis eggs.
The compounds were formulated using a solution containing 75% v/v water and 25% v/v DMSO. Different concentrations of formulated compounds were sprayed onto the insect diet at 20 μl, using a custom built micro atomizer, at two replications. After application, microtiter plates were incubated at about 23±1° C. and about 50±5% relative humidity for 5 days. Egg and larval mortality was then visually assessed.

[4] = test system: Diamond Back Moth (Plutella xylostella); test: Diamond back moth leaf dip test; conditions: foliar, 120 h
Protocol: The active compound is dissolved at the desired concentration in a mixture of 1:1 (vol:vol) distilled water:acteon. The test solution is prepared at the day of use and in general at concentrations of […].
Leaves of Chinese cabbage were dipped in test solution and air-dried. Treated leaves were placed in petri dished lined with moist filter paper. Mortality was recorded 24, 72, and 120 hours after treatment.

[5] = test system: Southern Armyworm (Spodoptera eridania); test: Southern armyworm lima bean foliar spray test; conditions: 96 h
Protocol: (§1) The active compounds were formulated in cyclohexanone as a 10,000 ppm solution supplied in tubes. The tubes were inserted into an automated electrostatic sprayer equipped with an atomizing nozzle and they served as stock solutions for which lower dilutions were made in 50% acetone:50% water (v/v). A nonionic surfactant (Kinetic®) was included in the solution at a volume of 0.01% (v/v).
(§2) Lima bean plants (variety Sieva) were grown 2 plants to a pot and selected for treatment at the 1st true leaf stage. Test solutions were sprayed onto the foliage by an automated electrostatic plant sprayer equipped with an atomizing spray nozzle. The plants were dried in the sprayer fume hood and then removed from the sprayer. Each pot was placed into perforated plastic bags with a zip closure. About 10 to 11 armyworm larvae were placed into the bag and the bags zipped closed. Test plants were maintained in a growth room at about 25° C. and about 20-40% relative humidity for 4 days, avoiding direct exposure to fluorescent light (24 hour photoperiod) to prevent trapping of heat inside the bags. Mortality and reduced feeding were assessed 4 days after treatment, compared to untreated control plants.

[6] = test system: Orchid Thrips (Dichromothrips corbetti); test: Orchid thrips floral-immersion test; conditions: 96 h
Protocol: Dichromothrips corbetti adults used for bioassay are obtained from a colony maintained continuously under laboratory conditions. For testing purposes, the test compound is diluted to a concentration of 300 ppm (wt compound: vol diluent) in a 1:1 mixture of acetone:water (vol:vol), plus 0.01% vol/vol Kinetic® surfactant.
Thrips potency of each compound is evaluated by using a floral-immersion technique. Plastic petri dishes are used as test arenas. All petals of individual, intact orchid flowers are dipped into treatment solution and allowed to dry. Treated flowers are placed into individual petri dishes along with 10-15 adult thrips. The petri dishes are then covered with lids. All test arenas are held under continuous light and a temperature of about 28° C. for duration of the assay. After 4 days, the numbers of live thrips are counted on each flower, and along inner walls of each petri dish. The level of thrips mortality is extrapolated from pre-treatment thrips numbers.

[7] = test system: Silverleaf Whitefly (Bemisia argentifolii); test: Silverleaf whitefly cotton plant spray test; conditions: 72 h, 3 days after treatment, in comparison with untreated controls
From the text: as §1
Cotton plants at the cotyledon stage (one plant per pot) were sprayed by an automated electrostatic plant sprayer equipped with an atomizing spray nozzle. The plants were dried in the sprayer fume hood and then removed from the sprayer. Each pot was placed into a plastic cup and about 10 to 12 whitefly adults (approximately 3-5 days old) were introduced. The insects were collected using an aspirator and a nontoxic Tygon® tubing connected to a barrier pipette tip. The tip, containing the collected insects, was then gently inserted into the soil containing the treated plant, allowing insects to crawl out of the tip to reach the foliage for feeding. Cups were covered with a reusable screened lid. Test plants were maintained in a growth room at about 25° C. and about 20-40% relative humidity for 3 days, avoiding direct exposure to fluorescent light (24 hour photoperiod) to prevent trapping of heat inside the cup. Mortality was assessed 3 days after treatment, compared to untreated control plants.

[8] = test system: Mediterranean Fruitfly (Ceratitis capitata); test: Mediterranean fruitfly microtiter plate diet test; conditions: 120 h
Protocol: For evaluating control of Mediterranean fruitfly (Ceratitis capitata) the test unit consisted of microtiter plates containing an insect diet and 50-80 C. capitata eggs. The compounds were formulated using a solution containing 75% v/v water and 25% v/v DMSO. Different concentrations of formulated compounds were sprayed onto the insect diet at 5 μl, using a custom built micro atomizer, at two replications.
After application, microtiter plates were incubated at about 28±1° C. and about 80±5% relative humidity for 5 days. Egg and larval mortality was then visually assessed.

[9] = test system: Tobacco Budworm (Heliothis virescens); test: Tobacco budworm cotton plant foliar spray test; conditions: 96 h
Protocol: as §1
as §2, with “Cotton” for “Lima bean”, “plants” for “plants (variety Sieva)”, “cotyledon” for “1st true leaf”, “budworm” for “armyworm”

CON=C(c1ccc(C2=NOC(c3cc(Cl)cc(Cl)c3)(C(F)(F)F)C2)cc1C)N(C)C (stereo not drawn) [Compound 1-3, 4-[5-(3,5-Dichloro-phenyl)-5-trifluoromethyl-4,5-dihydro-isoxazol-3-yl]-N′-methoxy-2,N,N-trimethyl-benzamidine]
≥ 75%: mortality at 1 ppm [1] | mortality at 10 ppm [2] | mortality at 2500 ppm [3] | mortality at 300 ppm [4] | mortality at 300 ppm [5] | mortality at 300 ppm [6] | mortality at 300 ppm [7] | mortality at 2500 ppm [8] | mortality at 2500 ppm [9]
